{
  "source": "paper PMC10210398",
  "about": "“Genomic, functional and structural analyses elucidate evolutionary innovation within the sea anemone 8 toxin family” (BMC Biology, 2023)",
  "key": {"hKCa3.1": {"tested_on": "hKCa3.1", "experiment": "Whole-cell patch-clamp, hKCa3.1 in transiently transfected CHO cells", "type": "cell-based, human", "experimental": "(§1) CHO and human embryonic kidney (HEK 293) cells were grown in DMEM-high glucose supplemented with 10% FBS, 2 mM L-glutamine, 100 U/mL penicillin-g, and 100 μg/mL streptomycin (Invitrogen) at 37 °C in a 5% CO2 and 95% air humidified atmosphere. Cells were passaged twice per week following a 5-min incubation in PBS containing 0.2 g/L EDTA (Invitrogen, Carlsbad, CA).\n(§2) CHO cells (ATCC) were transiently transfected with plasmids encoding hKV1.1, hKV1.2, hKV10.1, hKCa3.1, hTRPA1, or hNaV1.7 using Lipofectamine 2000 (Invitrogen, Carlsbad, CA) following the manufacturer’s protocol, then cultured under standard conditions. The cells were co-transfected with a plasmid encoding green fluorescent protein (GFP) at a molar ratio of 10:1 except for hKV1.1, hKV1.2, and hKCa3.1 for which GFP-tagged ion channel vectors were used. Currents were recorded 24–36 h after transfection. […] Transfected cells were washed twice with 2 mL of ECS (see below) and re-plated onto 35-mm polystyrene cell culture dishes (Cellstar, Greiner Bio-One). hKV1.3 currents were recorded from activated peripheral blood mononuclear cells (PBMCs, see below) 3–4 days after activation. […]\n(§3) Conventional whole-cell patch-clamp electrophysiology was used to record ionic currents. […] Data were analysed using Prism 8 (GraphPad, CA, USA) and ClampFit 10.5 software (Molecular Devices Inc., Sunnyvale, CA). […]"}, "hKV1.2": {"biological_target": "T1, hKV1.2 (Homo sapiens, UniProt P16389)", "T1 construct": "GFP; expressed in transfected cells; host or cells: CHO cells (ATCC), transient transfection with Lipofectamine 2000", "T1 sequence (P16389 whole entry)": "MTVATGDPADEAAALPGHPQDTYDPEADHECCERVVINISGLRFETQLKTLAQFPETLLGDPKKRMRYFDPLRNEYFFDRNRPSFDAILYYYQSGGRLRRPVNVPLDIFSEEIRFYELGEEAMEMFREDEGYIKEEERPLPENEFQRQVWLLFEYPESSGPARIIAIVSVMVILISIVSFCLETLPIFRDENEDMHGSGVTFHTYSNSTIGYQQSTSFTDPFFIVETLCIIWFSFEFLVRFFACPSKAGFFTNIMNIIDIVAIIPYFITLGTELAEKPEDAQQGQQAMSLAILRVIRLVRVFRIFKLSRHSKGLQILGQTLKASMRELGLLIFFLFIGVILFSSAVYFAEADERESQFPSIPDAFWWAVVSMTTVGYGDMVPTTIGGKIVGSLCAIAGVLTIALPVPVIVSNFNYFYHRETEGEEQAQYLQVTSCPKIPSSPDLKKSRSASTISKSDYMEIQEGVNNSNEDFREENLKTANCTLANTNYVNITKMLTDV", "experiment": "Whole-cell patch-clamp, hKV1.2 in transiently transfected CHO cells", "type": "cell-based", "settings": "for RCF_mean (remaining current fraction, I/I0): mean", "experimental": "as §1\n(§4) CHO cells (ATCC) were transiently transfected with plasmids encoding hKV1.1, hKV1.2, hKV10.1, hKCa3.1, hTRPA1, or hNaV1.7 using Lipofectamine 2000 (Invitrogen, Carlsbad, CA) following the manufacturer’s protocol, then cultured under standard conditions. The cells were co-transfected with a plasmid encoding green fluorescent protein (GFP) at a molar ratio of 10:1 except for hKV1.1, hKV1.2, and hKCa3.1 for which GFP-tagged ion channel vectors were used. Currents were recorded 24–36 h after transfection. […] HEK 293 cells stably expressing the hKv11.1 channel (hERG, hKCNH2 gene, a kind gift from H. Wulff, University of California, Davis, CA) and mKCa1.1 channel (BKCa, hKCNMA1, a kind gift from C. Beeton, Baylor College of Medicine, Houston, TX) were used. hTRPV1 channels were expressed in a stable manner in CHO cells. Transfected cells were washed twice with 2 mL of ECS (see below) and re-plated onto 35-mm polystyrene cell culture dishes (Cellstar, Greiner Bio-One). hKV1.3 currents were recorded from activated peripheral blood mononuclear cells (PBMCs, see below) 3–4 days after activation. Human veinous blood was obtained from anonymised healthy donors. PBMCs were isolated using Histopaque1077 (Sigma-Aldrich Hungary, Budapest, Hungary) density gradient centrifugation. Cells obtained were resuspended in RPMI 1640 medium containing 10% foetal calf serum (Sigma-Aldrich Hungary, Budapest, Hungary), 100 μg/mL penicillin, 100 μg/mL streptomycin, and 2 mM L-glutamine, seeded in a 24-well culture plate at a density of 5–6 × 10^5 cells/mL, and grown in a 5% CO2 incubator at 37 °C for 3–5 days. Phytohemagglutinin A (PHA, Sigma-Aldrich Hungary, Budapest, Hungary) was added to the medium at 10 μg/mL to amplify the KV1.3 expression. Cells were washed gently twice with 2 mL of ECS for the patch-clamp experiments.\nConventional whole-cell patch-clamp electrophysiology was used to record ionic currents. Micropipettes were pulled in four stages using a Flaming Brown automatic pipette puller (Sutter Instruments, San Rafael, CA) from Borosilicate Standard Wall with Filament aluminium–silicate glass (Harvard Apparatus Co., Holliston, MA) with tip diameters between 0.5 and 1 μm and heat polished to a tip resistance of 2–8 MΩ. All measurements were carried out by using Axopatch 200B amplifier connected to a personal computer using Axon Digidata 1550A data acquisition hardware (Molecular Devices, Sunnyvale, CA). In general, the holding potential was − 120 mV. Records were discarded when a leak at the holding potential was > 10% of the peak current at the test potential. Series resistance compensation up to 70% was used to minimise voltage errors and achieve proper voltage-clamp conditions. Experiments were performed at room temperature (20–24 °C). Data were analysed using Prism 8 (GraphPad, CA, USA) and ClampFit 10.5 software (Molecular Devices Inc., Sunnyvale, CA). Before analysis, whole-cell current traces were corrected for ohmic leakage and digitally filtered with a three-point boxcar smoothing filter. For hKCa3.1, hTRPA1 and hTRPV1, the reversal potential for K^+ was determined and only those currents were analysed for which the reversal potential fell into the range of the theoretical reversal potential ± 5 mV (− 86.5 ± 5 mV for KCa3.1, and 0 ± 5 mV for hTRPA1 and hTRPV1)."}, "hTRPV1": {"tested_on": "hTRPV1", "experiment": "Whole-cell patch-clamp, hTRPV1 stably expressed in CHO cells", "type": "cell-based, human", "experimental": "as §1, §2, §3"}, "hNaV1.7": {"tested_on": "hNaV1.7", "experiment": "Whole-cell patch-clamp, hNaV1.7 in transiently transfected CHO cells", "type": "cell-based, human", "experimental": "as §1, §2, §3"}, "hKV10.1": {"tested_on": "hKV10.1", "experiment": "Whole-cell patch-clamp, hKV10.1 in transiently transfected CHO cells", "type": "cell-based, human", "experimental": "as §1\nas §4, with “PBMCs were isolated using Histopaque1077 (Sigma-Aldrich Hungary, Budapest, Hungary) density gradient centrifugation. Cells obtained were resuspended in RPMI 1640 medium containing 10% foetal calf serum (Sigma-Aldrich Hungary, Budapest, Hungary), 100 μg/mL penicillin, 100 μg/mL streptomycin, and 2 mM L-glutamine, seeded in a 24-well culture plate at a density of 5–6 × 10^5 cells/mL, and grown in a 5% CO2 incubator at 37 °C for 3–5 days. Phytohemagglutinin A (PHA, Sigma-Aldrich Hungary, Budapest, Hungary) was added to the medium at 10 μg/mL to amplify the KV1.3 expression. Cells were washed gently twice with 2 mL of ECS for the patch-clamp experiments.” left out\n(§5) Conventional whole-cell patch-clamp electrophysiology was used to record ionic currents. […] Data were analysed using Prism 8 (GraphPad, CA, USA) and ClampFit 10.5 software (Molecular Devices Inc., Sunnyvale, CA). […] For hKCa3.1, hTRPA1 and hTRPV1, the reversal potential for K^+ was determined and only those currents were analysed for which the reversal potential fell into the range of the theoretical reversal potential ± 5 mV (− 86.5 ± 5 mV for KCa3.1, and 0 ± 5 mV for hTRPA1 and hTRPV1)."}, "hKV1.1": {"tested_on": "hKV1.1", "type": "cell-based, human", "experimental": "as §1\nas §4, with “PBMCs were isolated using Histopaque1077 (Sigma-Aldrich Hungary, Budapest, Hungary) density gradient centrifugation. Cells obtained were resuspended in RPMI 1640 medium containing 10% foetal calf serum (Sigma-Aldrich Hungary, Budapest, Hungary), 100 μg/mL penicillin, 100 μg/mL streptomycin, and 2 mM L-glutamine, seeded in a 24-well culture plate at a density of 5–6 × 10^5 cells/mL, and grown in a 5% CO2 incubator at 37 °C for 3–5 days. Phytohemagglutinin A (PHA, Sigma-Aldrich Hungary, Budapest, Hungary) was added to the medium at 10 μg/mL to amplify the KV1.3 expression. Cells were washed gently twice with 2 mL of ECS for the patch-clamp experiments.” left out\nas §5"}, "mKCa1.1 channel": {"tested_on": "mKCa1.1 channel", "type": "cell-based", "experimental": "as §1\nas §4, with “PBMCs were isolated using Histopaque1077 (Sigma-Aldrich Hungary, Budapest, Hungary) density gradient centrifugation. Cells obtained were resuspended in RPMI 1640 medium containing 10% foetal calf serum (Sigma-Aldrich Hungary, Budapest, Hungary), 100 μg/mL penicillin, 100 μg/mL streptomycin, and 2 mM L-glutamine, seeded in a 24-well culture plate at a density of 5–6 × 10^5 cells/mL, and grown in a 5% CO2 incubator at 37 °C for 3–5 days. Phytohemagglutinin A (PHA, Sigma-Aldrich Hungary, Budapest, Hungary) was added to the medium at 10 μg/mL to amplify the KV1.3 expression. Cells were washed gently twice with 2 mL of ECS for the patch-clamp experiments.” left out\nas §5"}},
  "note": "Entries after “also recorded” stand apart in the source; their conditions may differ. Bridge positions count the residues as written; N and C are the ends. Ends that are not written are not given here.",
  "data": [
    {"sequence": "GYGKGRPGCYNHYDESICGGVIKDEHCKAGRGSRMGKFALKNCQFQCGLC (disulfide 9-47, 18-50, 27-43) [SA8]", "values": [
      {"measurement": "RCF_mean (remaining current fraction, I/I0)", "setting": "hKCa3.1; KCa3.1, 100 nM SA8, mean, n = 6, SEM 0.0170688", "result": 0.9712},
      {"measurement": "effect on current, in words", "setting": "hKCa3.1; hKCa3.1, CHO cells, 100 nM SA8", "result": "no effect; also recorded: did not inhibit"},
      {"measurement": "association and dissociation rates", "setting": "hKV1.2; 100 nM SA8, hKV1.2", "result": "rapid"},
      {"measurement": "reversibility of block upon washing", "setting": "hKV1.2; 100 nM SA8, hKV1.2, inhibitor-free solution", "result": "almost fully reversible"},
      {"measurement": "time for development of equilibrium block and recovery", "setting": "hKV1.2; 100 nM SA8, hKV1.2, recovery up to ~ 85% of control current", "result": "~ 1 min"},
      {"measurement": "IC50", "setting": "hKV1.2; 0.01, 0.1, 1 and 10 µM SA8, linear least squares fit Y = 1 + slope × [toxin], n = 4, room temperature (20–24 °C), ECS pH 7.35, 0.1 mg/mL BSA, CHO cells", "result": "40.8 ± 4.9", "unit": "µM"},
      {"measurement": "RCF_mean (remaining current fraction, I/I0)", "setting": "hKV1.2; Kv1.2, 10 nM SA8, n = 5, SEM 0.00976051", "result": 0.9869},
      {"measurement": "RCF_mean (remaining current fraction, I/I0)", "setting": "hKV1.2; Kv1.2, 100 nM SA8, n = 4, SEM 0.0156624", "result": 0.9412},
      {"measurement": "RCF_mean (remaining current fraction, I/I0)", "setting": "hKV1.2; Kv1.2, 1000 nM SA8, n = 4, SEM 0.0249691", "result": 0.9151},
      {"measurement": "RCF_mean (remaining current fraction, I/I0)", "setting": "hKV1.2; Kv1.2, 10000 nM SA8, n = 6, SEM 0.0222303", "result": 0.772},
      {"measurement": "recovery of current upon washing (of control current)", "setting": "hKV1.2; after 100 nM SA8, hKV1.2, inhibitor-free solution", "result": "~ 85%"},
      {"measurement": "effect on current, in words", "setting": "hKV1.2; hKV1.2, CHO cells, 100 nM", "result": "weak block; also recorded: modest block; also recorded: weak inhibition"},
      {"measurement": "RCF_mean (remaining current fraction, I/I0)", "setting": "hTRPV1; TRPV1, 100 nM SA8, mean, n = 5, SEM 0.0111172", "result": 0.9606},
      {"measurement": "effect on current, in words", "setting": "hTRPV1; hTRPV1, CHO cells, activated by 1 µM capsaicin, 100 nM SA8", "result": "no effect; also recorded: did not inhibit"},
      {"measurement": "RCF_mean (remaining current fraction, I/I0)", "setting": "hNaV1.7; Nav1.7, 1000 nM SA8, mean, n = 5, SEM 0.022988", "result": 1.02},
      {"measurement": "effect on current, in words", "setting": "hNaV1.7; hNaV1.7, CHO cells, 1 µM SA8", "result": "no effect; also recorded: did not inhibit"},
      {"measurement": "RCF_mean (remaining current fraction, I/I0)", "setting": "hKV10.1; Kv10.1, 1000 nM SA8, mean, n = 4, SEM 0.00577385", "result": 0.9796},
      {"measurement": "effect on current, in words", "setting": "hKV10.1; hKV10.1, CHO cells, 1 µM SA8", "result": "no effect; also recorded: did not inhibit"},
      {"measurement": "RCF_mean (remaining current fraction, I/I0)", "setting": "hKV1.1; Kv1.1, 100 nM SA8, mean, n = 4, SEM 0.0202631", "result": 1.029},
      {"measurement": "effect on current, in words", "setting": "hKV1.1; hKV1.1, CHO cells, 100 nM SA8", "result": "no effect; also recorded: did not inhibit"},
      {"measurement": "RCF_mean (remaining current fraction, I/I0)", "setting": "mKCa1.1 channel; KCa1.1, 100 nM SA8, mean, n = 4, SEM 0.0158455", "result": 1.052},
      {"measurement": "effect on current, in words", "setting": "mKCa1.1 channel; mKCa1.1, HEK 293, 100 nM SA8", "result": "no effect; also recorded: did not inhibit"}
    ]}
  ]
}
